According to article PMC12115184, “Metformin-Induced Apoptosis Is Mediated Through Mitochondrial VDAC1” (Pharmaceuticals, 2025):

Target: T1, VDAC1 (Rattus norvegicus, UniProt Q9Z2L0)
T1 construct: VDAC1 purified from rat liver mitochondria (channel conductance)
Experiment: planar lipid bilayer conductance of reconstituted purified VDAC1; MST with N-terminal peptide
Type: biochemical

T1 sequence (Q9Z2L0 2-283): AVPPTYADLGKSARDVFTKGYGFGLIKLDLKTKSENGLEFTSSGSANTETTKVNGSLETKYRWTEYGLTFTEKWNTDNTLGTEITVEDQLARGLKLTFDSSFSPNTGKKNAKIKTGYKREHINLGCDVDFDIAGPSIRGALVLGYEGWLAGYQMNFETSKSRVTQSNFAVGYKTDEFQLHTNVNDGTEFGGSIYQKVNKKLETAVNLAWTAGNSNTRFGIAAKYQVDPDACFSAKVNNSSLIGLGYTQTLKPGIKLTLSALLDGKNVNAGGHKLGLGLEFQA

CN(C)C(=N)N=C(N)N [metformin, 3-(diaminomethylidene)-1,1-dimethylguanidine]
planar lipid bilayer conductance of reconstituted purified VDAC1; MST with N-ter: Metformin reduced VDAC1 conductance only after the channel was exposed to a high voltage step.
